Results: patent US7820827B2, “Substituted piperidine compounds and methods of their use” (Adolor Corporation, priority 2003, dated 2010)

Columns and labels:
[1] = target: T1, cloned human κ opioid receptor (Homo sapiens, UniProt P41145); experiment: [3H]diprenorphine receptor binding, κ opioid receptor; details: [3H]diprenorphine displacement; read-out: affinity (expressed as Ki value) to the κ opioid receptor
T1 construct: expressed in transfected cells
Protocol: (§1) Ki values were obtained by Cheng-Prusoff corrections of IC50 values.
(§2) After dilution in buffer A and homogenization as before, membrane proteins (10-80 μg) in 250 μL were added to mixtures containing test compound and [^3H]diprenorphine (0.5 to 1.0 nM, 40,000 to 50,000 dpm) in 250 μL of buffer A in 96-well deep-well polystyrene titer plates (Beckman). After incubation at room temperature for one hour, the samples were filtered through GF/B filters that had been presoaked in a solution of 0.5% (w/v) polyethylenimine and 0.1% (w/v) bovine serum albumin in water. The filters were rinsed 4 times with 1 mL of cold 50 mM Tris HCl, pH 7.8 and radioactivity remaining on the filters determined by scintillation spectroscopy. Nonspecific binding was determined by the minimum values of the titration curves and was confirmed by separate assay wells containing 10 μM naloxone.
(§3) To determine the equilibrium dissociation constant for the inhibitors (Ki), radioligand bound (cpm) in the presence of various concentrations of test compounds was measured. The concentration to give half-maximal inhibition (EC50) of radioligand binding was determined from a best nonlinear regression fit to the following equation,
(§4) The nonlinear regression fit was performed using the program Prism® (GraphPad Software, San Diego, Calif.). The Ki values were then determined from the EC50 values by the following equation, […]

[2] = target: T2, cloned human δ opioid receptor (Homo sapiens, UniProt P41143); experiment: [3H]diprenorphine receptor binding, δ opioid receptor; details: [3H]diprenorphine displacement; read-out: affinity (expressed as Ki value) to the δ opioid receptor
T2 construct: expressed in transfected cells
Protocol: as §1, §2, §3, §4

T2 sequence (P41143 whole entry): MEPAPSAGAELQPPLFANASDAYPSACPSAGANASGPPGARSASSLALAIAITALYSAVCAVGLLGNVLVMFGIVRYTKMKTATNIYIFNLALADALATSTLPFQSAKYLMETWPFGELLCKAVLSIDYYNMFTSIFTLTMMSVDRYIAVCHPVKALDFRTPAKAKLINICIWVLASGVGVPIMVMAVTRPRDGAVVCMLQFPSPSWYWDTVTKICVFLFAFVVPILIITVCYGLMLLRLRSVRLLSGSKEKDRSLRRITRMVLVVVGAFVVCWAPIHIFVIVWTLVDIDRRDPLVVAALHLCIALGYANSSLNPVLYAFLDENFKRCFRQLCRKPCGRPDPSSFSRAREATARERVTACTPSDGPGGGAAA
T1 sequence (P41145 whole entry): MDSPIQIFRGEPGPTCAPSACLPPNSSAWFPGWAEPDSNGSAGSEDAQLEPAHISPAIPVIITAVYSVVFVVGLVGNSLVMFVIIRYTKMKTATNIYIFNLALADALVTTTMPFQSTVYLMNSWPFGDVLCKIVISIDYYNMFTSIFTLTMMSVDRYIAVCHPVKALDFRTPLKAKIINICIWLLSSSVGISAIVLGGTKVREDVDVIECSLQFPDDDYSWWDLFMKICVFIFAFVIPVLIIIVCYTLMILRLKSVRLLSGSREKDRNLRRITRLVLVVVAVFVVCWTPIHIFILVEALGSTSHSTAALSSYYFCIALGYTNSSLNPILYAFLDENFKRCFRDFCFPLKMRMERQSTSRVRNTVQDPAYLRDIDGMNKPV

With `C[C@H]1CN(C[C@H](Cc2ccccc2)C(=O)N[C@@H](CCCN)C(=O)O)CC[C@@]1(C)c1cccc(O)c1` [Example 28, 5-Amino-2(S)-{2(S)-benzyl-3-[4(R)-(3-hydroxy-phenyl)-3(R),4-dimethyl-piperidin-1-yl]-propionylamino}-pentanoic acid] the Ki [1] was 200 nM and the Ki [2] was 510 nM.
